# Biological target: CB1 cannabinoid receptor (CB1R) (Mus musculus, UniProt P47746)
# Assay: inhibition of forskolin-activated cAMP accumulation in N18TG2 cells
# Assay type: cell-based
# Sequence of CB1 cannabinoid receptor (CB1R) (P47746 whole entry): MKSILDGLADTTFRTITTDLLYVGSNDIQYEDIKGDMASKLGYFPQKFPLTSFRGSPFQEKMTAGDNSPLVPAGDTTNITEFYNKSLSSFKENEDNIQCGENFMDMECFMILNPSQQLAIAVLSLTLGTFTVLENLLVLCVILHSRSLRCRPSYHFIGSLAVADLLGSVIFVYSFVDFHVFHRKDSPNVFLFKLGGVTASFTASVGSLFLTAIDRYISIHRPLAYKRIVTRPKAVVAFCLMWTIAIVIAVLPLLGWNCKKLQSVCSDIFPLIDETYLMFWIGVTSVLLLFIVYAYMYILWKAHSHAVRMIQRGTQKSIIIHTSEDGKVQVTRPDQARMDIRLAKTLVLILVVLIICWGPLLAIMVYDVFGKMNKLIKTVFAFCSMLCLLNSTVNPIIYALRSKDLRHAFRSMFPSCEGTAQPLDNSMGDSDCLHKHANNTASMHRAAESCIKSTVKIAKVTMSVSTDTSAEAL
structure (smiles),measurement,value
"CCCCCCC(C)(C)c1ccc([C@@H]2C[C@@H](O)CC[C@H]2CCCO)c(O)c1 [CP55940, (-)-3-[2-hydroxyl-4-(1,1-dimethylheptyl)phenyl]-4-[3-hydroxylpropyl] cyclohexan-1-ol]",EC50,3.11 nM
